Reference: ChEMBL document CHEMBL1154642, “Synthesis and biological evaluation of heterocyclic ring-substituted maslinic acid derivatives as novel inhibitors of protein tyrosine phosphatase 1B” (Bioorg Med Chem Lett, 2009)
pIC50: −log10 of the molar value.

Tests used:
Homo sapiens = species on record: Homo sapiens; test: Selectivity, ratio of IC50 for GST-tagged human TCPTP to IC50 for GST-tagged human PTP 1B
[1] = molecular target: T1, Tyrosine-protein phosphatase non-receptor type 1 (Homo sapiens, UniProt P18031); test: Inhibition of GST-tagged human PTP 1B
T1 sequence (P18031 whole entry): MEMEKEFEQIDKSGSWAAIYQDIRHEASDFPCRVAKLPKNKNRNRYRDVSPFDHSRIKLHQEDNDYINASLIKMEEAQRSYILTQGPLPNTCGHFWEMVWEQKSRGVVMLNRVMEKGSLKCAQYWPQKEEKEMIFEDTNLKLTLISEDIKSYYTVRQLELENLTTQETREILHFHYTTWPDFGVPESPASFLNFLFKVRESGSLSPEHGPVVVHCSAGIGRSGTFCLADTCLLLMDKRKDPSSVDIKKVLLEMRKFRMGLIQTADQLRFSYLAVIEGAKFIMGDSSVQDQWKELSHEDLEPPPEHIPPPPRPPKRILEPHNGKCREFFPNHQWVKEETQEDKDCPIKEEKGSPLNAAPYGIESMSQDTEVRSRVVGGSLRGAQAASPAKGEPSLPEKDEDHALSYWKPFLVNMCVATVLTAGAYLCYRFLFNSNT

[2] = molecular target: T2, Tyrosine-protein phosphatase non-receptor type 2 (Homo sapiens, UniProt P17706); test: Inhibition of GST-tagged human TCPTP
T2 sequence (P17706 whole entry): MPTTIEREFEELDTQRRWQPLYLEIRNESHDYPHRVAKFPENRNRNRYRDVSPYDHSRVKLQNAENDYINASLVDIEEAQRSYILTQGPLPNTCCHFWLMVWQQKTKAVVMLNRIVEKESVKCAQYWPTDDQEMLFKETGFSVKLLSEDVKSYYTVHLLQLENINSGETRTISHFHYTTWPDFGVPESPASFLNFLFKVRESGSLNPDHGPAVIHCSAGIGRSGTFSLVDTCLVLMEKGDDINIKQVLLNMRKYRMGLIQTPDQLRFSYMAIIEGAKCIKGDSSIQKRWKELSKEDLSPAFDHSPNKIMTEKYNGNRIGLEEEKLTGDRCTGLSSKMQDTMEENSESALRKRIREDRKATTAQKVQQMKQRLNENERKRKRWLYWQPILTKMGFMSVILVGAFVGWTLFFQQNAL

[3] = Inhibition of glycogen phosphorylase
[4] = molecular target: Receptor-type tyrosine-protein phosphatase F (Homo sapiens, UniProt P10586); test: Inhibition of GST-tagged human LAR
Sequence of Receptor-type tyrosine-protein phosphatase F (P10586 whole entry): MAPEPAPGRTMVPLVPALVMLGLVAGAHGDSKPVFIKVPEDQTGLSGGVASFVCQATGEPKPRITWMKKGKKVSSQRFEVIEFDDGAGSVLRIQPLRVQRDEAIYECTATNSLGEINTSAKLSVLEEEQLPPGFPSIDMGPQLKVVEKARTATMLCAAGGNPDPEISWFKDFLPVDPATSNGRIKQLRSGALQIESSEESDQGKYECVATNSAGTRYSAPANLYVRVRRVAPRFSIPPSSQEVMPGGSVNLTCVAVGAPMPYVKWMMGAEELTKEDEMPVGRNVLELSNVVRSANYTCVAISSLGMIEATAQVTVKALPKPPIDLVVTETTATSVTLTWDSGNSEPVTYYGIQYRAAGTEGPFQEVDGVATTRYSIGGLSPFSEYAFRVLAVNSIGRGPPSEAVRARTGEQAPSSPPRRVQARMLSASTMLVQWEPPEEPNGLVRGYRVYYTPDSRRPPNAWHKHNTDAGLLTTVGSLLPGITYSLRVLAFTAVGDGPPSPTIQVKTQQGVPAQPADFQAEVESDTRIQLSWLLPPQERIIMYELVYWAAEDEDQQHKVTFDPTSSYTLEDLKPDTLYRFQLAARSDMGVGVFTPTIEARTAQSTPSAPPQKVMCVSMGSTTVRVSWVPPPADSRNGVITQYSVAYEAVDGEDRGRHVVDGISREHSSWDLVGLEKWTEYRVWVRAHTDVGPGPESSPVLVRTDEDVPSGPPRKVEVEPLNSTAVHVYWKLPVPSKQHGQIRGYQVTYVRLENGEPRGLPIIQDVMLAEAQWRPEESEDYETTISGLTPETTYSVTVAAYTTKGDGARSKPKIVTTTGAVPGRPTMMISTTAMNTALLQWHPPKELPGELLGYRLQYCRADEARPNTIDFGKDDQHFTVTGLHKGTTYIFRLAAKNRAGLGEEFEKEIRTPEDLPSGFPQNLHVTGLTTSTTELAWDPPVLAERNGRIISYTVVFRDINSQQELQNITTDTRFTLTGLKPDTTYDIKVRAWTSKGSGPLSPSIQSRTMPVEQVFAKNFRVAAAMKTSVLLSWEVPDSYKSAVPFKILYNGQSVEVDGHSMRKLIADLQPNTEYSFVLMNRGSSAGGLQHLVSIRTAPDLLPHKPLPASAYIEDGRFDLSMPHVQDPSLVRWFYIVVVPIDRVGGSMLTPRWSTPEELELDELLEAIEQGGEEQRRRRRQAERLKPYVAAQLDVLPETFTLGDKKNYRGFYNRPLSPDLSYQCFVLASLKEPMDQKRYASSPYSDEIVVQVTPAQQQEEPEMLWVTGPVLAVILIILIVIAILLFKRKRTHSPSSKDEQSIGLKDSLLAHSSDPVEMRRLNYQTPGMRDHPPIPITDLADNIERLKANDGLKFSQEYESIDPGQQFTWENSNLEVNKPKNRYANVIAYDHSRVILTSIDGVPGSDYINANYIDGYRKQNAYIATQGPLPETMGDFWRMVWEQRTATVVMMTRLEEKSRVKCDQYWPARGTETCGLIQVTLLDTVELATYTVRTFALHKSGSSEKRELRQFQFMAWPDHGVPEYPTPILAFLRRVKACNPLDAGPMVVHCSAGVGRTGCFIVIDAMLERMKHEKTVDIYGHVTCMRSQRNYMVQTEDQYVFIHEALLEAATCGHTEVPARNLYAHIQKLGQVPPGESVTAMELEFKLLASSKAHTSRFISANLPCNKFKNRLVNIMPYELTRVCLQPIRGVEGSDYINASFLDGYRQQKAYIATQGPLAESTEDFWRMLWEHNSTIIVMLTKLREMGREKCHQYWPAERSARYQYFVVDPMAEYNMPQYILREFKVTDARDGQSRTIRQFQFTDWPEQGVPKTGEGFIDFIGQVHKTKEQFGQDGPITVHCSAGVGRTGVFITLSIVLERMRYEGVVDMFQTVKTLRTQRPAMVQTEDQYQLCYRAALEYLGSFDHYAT

[5] = molecular target: T3, Tyrosine-protein phosphatase non-receptor type 11 (Homo sapiens, UniProt Q06124); test: Inhibition of GST-tagged human SHP2
T3 sequence (Q06124 whole entry): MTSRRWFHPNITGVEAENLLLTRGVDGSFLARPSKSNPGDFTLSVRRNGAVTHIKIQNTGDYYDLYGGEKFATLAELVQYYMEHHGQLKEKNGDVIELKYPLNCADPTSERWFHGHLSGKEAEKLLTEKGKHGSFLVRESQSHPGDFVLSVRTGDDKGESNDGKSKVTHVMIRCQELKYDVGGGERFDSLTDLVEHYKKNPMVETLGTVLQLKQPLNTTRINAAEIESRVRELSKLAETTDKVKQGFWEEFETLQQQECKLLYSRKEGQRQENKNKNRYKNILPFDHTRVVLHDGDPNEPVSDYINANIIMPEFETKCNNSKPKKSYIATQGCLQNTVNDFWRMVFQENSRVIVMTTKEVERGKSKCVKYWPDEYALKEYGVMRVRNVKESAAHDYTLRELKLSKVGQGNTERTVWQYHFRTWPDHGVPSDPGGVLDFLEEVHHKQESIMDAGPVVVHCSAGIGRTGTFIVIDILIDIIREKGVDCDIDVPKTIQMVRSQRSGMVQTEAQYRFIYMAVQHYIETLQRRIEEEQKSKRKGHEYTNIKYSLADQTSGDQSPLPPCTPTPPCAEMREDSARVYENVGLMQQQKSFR

[6] = molecular target: Tyrosine-protein phosphatase non-receptor type 6 (Homo sapiens, UniProt P29350); test: Inhibition of GST-tagged human SHP1
Sequence of Tyrosine-protein phosphatase non-receptor type 6 (P29350 whole entry): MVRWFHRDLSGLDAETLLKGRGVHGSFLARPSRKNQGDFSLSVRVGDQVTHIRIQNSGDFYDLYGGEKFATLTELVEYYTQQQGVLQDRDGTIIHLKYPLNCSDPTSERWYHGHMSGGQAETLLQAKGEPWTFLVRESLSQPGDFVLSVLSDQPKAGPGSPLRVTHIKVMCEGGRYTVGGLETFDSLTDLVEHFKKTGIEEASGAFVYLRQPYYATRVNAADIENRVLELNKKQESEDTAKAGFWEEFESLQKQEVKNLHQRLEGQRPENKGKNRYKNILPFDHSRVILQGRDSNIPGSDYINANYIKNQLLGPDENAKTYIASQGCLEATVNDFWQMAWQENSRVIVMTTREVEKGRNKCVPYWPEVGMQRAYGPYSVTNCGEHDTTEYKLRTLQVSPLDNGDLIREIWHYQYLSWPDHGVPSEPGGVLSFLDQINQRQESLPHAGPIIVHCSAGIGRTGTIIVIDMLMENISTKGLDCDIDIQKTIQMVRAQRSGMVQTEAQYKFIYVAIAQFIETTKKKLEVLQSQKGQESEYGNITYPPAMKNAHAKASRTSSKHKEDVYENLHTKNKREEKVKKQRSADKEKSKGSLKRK

| Compound | Ratio IC50 (Homo sapiens) | pIC50 [1] | pIC50 [2] | pIC50 [3] | pIC50 [4] | pIC50 [5] | pIC50 [6] |
| --- | --- | --- | --- | --- | --- | --- | --- |
| O=C(O)C(=O)c1ccc(OCc2ccc(COc3ccc(C(=O)C(=O)O)cc3)cc2)cc1 | 1.6 | 5.41 | 5.20 | – | – | – | – |
| CC1(C)CC[C@]2(C(=O)O)CC[C@]3(C)C(=CC[C@@H]4[C@@]5(C)C[C@@H](O)[C@H](O)C(C)(C)[C@@H]5CC[C@]43C)[C@@H]2C1 [MASLINIC ACID] | 3.3 | 5.23 | 4.71 | 4.55 | < 4.40 | < 4.40 | < 4.40 |
| CC1(C)CC[C@]2(C(=O)O)CC[C@]3(C)C(=CC[C@@H]4[C@@]5(C)C[C@@H](O)[C@@H](O)C(C)(C)[C@@H]5CC[C@]43C)[C@@H]2C1 | – | 4.84 | – | – | – | – | – |
| Cc1ncc2c(n1)C(C)(C)[C@@H]1CC[C@]3(C)[C@H](CC=C4[C@@H]5CC(C)(C)CC[C@]5(C(=O)O)CC[C@]43C)[C@@]1(C)C2 | 2.5 | 5.58 | 5.19 | – | – | – | – |
| CC1(C)CC[C@]2(C(=O)O)CC[C@]3(C)C(=CC[C@@H]4[C@@]5(C)C[C@H](O)[C@H](O)C(C)(C)[C@@H]5CC[C@]43C)[C@@H]2C1 [AUGUSTIC ACID] | – | 5.31 | – | – | – | – | – |
| CNc1ncc2c(n1)C(C)(C)[C@@H]1CC[C@]3(C)[C@H](CC=C4[C@@H]5CC(C)(C)CC[C@]5(C(=O)O)CC[C@]43C)[C@@]1(C)C2 | – | 5.26 | – | – | – | – | – |
| CC1(C)CC[C@]2(C(=O)O)CC[C@]3(C)C(=CC[C@@H]4[C@@]5(C)Cc6cncnc6C(C)(C)[C@@H]5CC[C@]43C)[C@@H]2C1 | 3 | 5.56 | 5.09 | – | < 4.40 | < 4.40 | < 4.40 |
| CC1(C)CC[C@]2(C(=O)O)CC[C@]3(C)C(=CC[C@@H]4[C@@]5(C)Cc6cnoc6C(C)(C)[C@@H]5CC[C@]43C)[C@@H]2C1 | 3.3 | 5.59 | 5.07 | – | < 4.40 | < 4.40 | < 4.40 |

Now those with a higher pIC50 [1], led by results:

| Ratio IC50 (Homo sapiens) | pIC50 [1] | pIC50 [2] | pIC50 [3] | pIC50 [4] | pIC50 [5] | pIC50 [6] | Compound |
| --- | --- | --- | --- | --- | --- | --- | --- |
| 4.6 | 5.75 | 5.08 | – | < 4.40 | < 4.40 | < 4.40 | CC1(C)CC[C@]2(C(=O)O)CC[C@]3(C)C(=CC[C@@H]4[C@@]5(C)Cc6nccnc6C(C)(C)[C@@H]5CC[C@]43C)[C@@H]2C1 |
| 2.6 | 6.21 | 5.80 | – | – | – | – | CC1(C)CC[C@]2(C(=O)O)CC[C@]3(C)C(=CC[C@@H]4[C@@]5(C)Cc6c([nH]c7ccccc67)C(C)(C)[C@@H]5CC[C@]43C)[C@@H]2C1 |
| 4.5 | 6.09 | 5.44 | – | – | – | – | CC1(C)CC[C@]2(C(=O)O)CC[C@]3(C)C(=CC[C@@H]4[C@@]5(C)Cc6cnn(C(=O)c7ccncc7)c6C(C)(C)[C@@H]5CC[C@]43C)[C@@H]2C1 |
| 3.6 | 5.78 | 5.22 | – | < 4.40 | < 4.40 | < 4.40 | CC1(C)CC[C@]2(C(=O)O)CC[C@]3(C)C(=CC[C@@H]4[C@@]5(C)Cc6cn[nH]c6C(C)(C)[C@@H]5CC[C@]43C)[C@@H]2C1 |
| 3.4 | 5.72 | 5.19 | – | < 4.40 | < 4.40 | < 4.40 | CC1(C)CC[C@]2(C(=O)O)CC[C@]3(C)C(=CC[C@@H]4[C@@]5(C)Cc6sc(N)nc6C(C)(C)[C@@H]5CC[C@]43C)[C@@H]2C1 |
| 4.1 | 5.84 | 5.23 | – | < 4.40 | < 4.40 | < 4.40 | CC1(C)CC[C@]2(C(=O)O)CC[C@]3(C)C(=CC[C@@H]4[C@@]5(C)Cc6nc7ccccc7nc6C(C)(C)[C@@H]5CC[C@]43C)[C@@H]2C1 |
| 3.3 | 5.83 | 5.31 | – | – | – | – | CC(=O)n1ncc2c1C(C)(C)[C@@H]1CC[C@]3(C)[C@H](CC=C4[C@@H]5CC(C)(C)CC[C@]5(C(=O)O)CC[C@]43C)[C@@]1(C)C2 |
| 2.7 | 5.86 | 5.42 | – | < 4.40 | < 4.40 | < 4.40 | CC1(C)CC[C@]2(C(=O)O)CC[C@]3(C)C(=CC[C@@H]4[C@@]5(C)Cc6cnn(-c7ccccc7)c6C(C)(C)[C@@H]5CC[C@]43C)[C@@H]2C1 |
| 3.1 | 5.75 | 5.26 | – | – | – | – | CC1(C)CC[C@]2(C(=O)O)CC[C@]3(C)C(=CC[C@@H]4[C@@]5(C)Cc6cnc(N)nc6C(C)(C)[C@@H]5CC[C@]43C)[C@@H]2C1 |
| 3.2 | 5.76 | 5.25 | – | – | – | – | CCCCCC(=O)n1ncc2c1C(C)(C)[C@@H]1CC[C@]3(C)[C@H](CC=C4[C@@H]5CC(C)(C)CC[C@]5(C(=O)O)CC[C@]43C)[C@@]1(C)C2 |
| 6.9 | 6.19 | 5.36 | – | – | – | – | CC1(C)CC[C@]2(C(=O)O)CC[C@]3(C)C(=CC[C@@H]4[C@@]5(C)Cc6cnn(C(=O)c7cccnc7)c6C(C)(C)[C@@H]5CC[C@]43C)[C@@H]2C1 |
